Data as given in patent US20040146872A1, “Fat regulated genes, uses thereof and compounds for modulating same” (priority 2003, published 2004).

Key:
Assay type in all cases: in vivo
SCD1 = experiment: Northern blot quantification of SCD1 mRNA in liver of rats fed PUFA-supplemented fat free diet; conditions: rat liver RNA; female Wistar rats, fat free diet 2 weeks, then fatty acid 5% (w/w) in diet 2 weeks; ± standard deviation of three rats; normalized for 18S; fat free = 100
Text: The present inventors have identified genes that were modulated or regulated by dietary fat using a differential display technique (Liang P. and Pardee A. B., 1992, Science, 257: 967-971). Groups of female Wistar rats were fed fat free diet for two weeks. After two weeks all groups but one (controls) were supplemented with highly purified PUFAs for an additional two weeks. The rats were sacrificed and tissues were removed to obtain RNA for differential display and Northern blotting. Differential display identified genes regulated by dietary fat by comparing mRNA populations from rat liver. For the study, the rats were divided into six groups and fed fat free diet for 14 days. Each group was fed fat free diet for an additional two weeks with the following supplements: group 1-no supplement (fat free control); group 2-linoleic acid (LA, 18:2n-6); group 3-gamma-linolenic acid (GLA, 18:3n-6); group 4-alpha-linolenic acid (ALA, 18:3n-3); group 5-eicosapentaenoic acid (EPA, 20:5n-3) and group 6-docosahexaenoic acid (DHA, 22:6n-3). Fatty acids were administered in the diet at a fatty acid-specific concentration of 5% (w/w), as described in Example 1. The rats were fed ad libitum. […] The rats were randomly divided into 6 groups and fed fat free diet (Teklad #94013). After 2 weeks, groups 2-6 were fed diets supplemented with highly purified polyunsaturated fatty acids for an additional 2 weeks. The concentration of the specific fatty acid used for each group was 5% (w/w) of the total diet preparation. The experimental design is provided below. Diets were prepared by mixing the oils into the fat free diet. The mixed diet was stored at -20° C. under a nitrogen atmosphere to prevent fatty acid oxidation. Dietary feedings were provided at the same time each day. Diet preparations are shown below. Rats ([…]) were sacrificed via cardiac puncture under anesthesia. The livers were perfused with saline, excised and frozen in liquid nitrogen in preparation for RNA extraction. Total RNA from 0.4 g of each liver was isolated as per manufacturer's protocol using Trizol Reagent (Gibco BRL). […]

SCD2 = experiment: Northern blot quantification of SCD2 mRNA in liver of rats fed PUFA-supplemented fat free diet; conditions: rat liver RNA; female Wistar rats, fat free diet 2 weeks, then fatty acid 5% (w/w) in diet 2 weeks; ± standard deviation of three rats; normalized for 18S; fat free = 100
Text: (§1) The present inventors have identified genes that were modulated or regulated by dietary fat using a differential display technique (Liang P. and Pardee A. B., 1992, Science, 257: 967-971). Groups of female Wistar rats were fed fat free diet for two weeks. After two weeks all groups but one (controls) were supplemented with highly purified PUFAs for an additional two weeks. The rats were sacrificed and tissues were removed to obtain RNA for differential display and Northern blotting. Differential display identified genes regulated by dietary fat by comparing mRNA populations from rat liver. For the study, the rats were divided into six groups and fed fat free diet for 14 days. Each group was fed fat free diet for an additional two weeks with the following supplements: group 1-no supplement (fat free control); group 2-linoleic acid (LA, 18:2n-6); group 3-gamma-linolenic acid (GLA, 18:3n-6); group 4-alpha-linolenic acid (ALA, 18:3n-3); group 5-eicosapentaenoic acid (EPA, 20:5n-3) and group 6-docosahexaenoic acid (DHA, 22:6n-3). Fatty acids were administered in the diet at a fatty acid-specific concentration of 5% (w/w), as described in Example 1. The rats were fed ad libitum. […] The rats were randomly divided into 6 groups and fed fat free diet (Teklad #94013). After 2 weeks, groups 2-6 were fed diets supplemented with highly purified polyunsaturated fatty acids for an additional 2 weeks. The concentration of the specific fatty acid used for each group was 5% (w/w) of the total diet preparation. The experimental design is provided below. Diets were prepared by mixing the oils into the fat free diet. The mixed diet was stored at -20° C. under a nitrogen atmosphere to prevent fatty acid oxidation. Dietary feedings were provided at the same time each day. Diet preparations are shown below. Rats ([…]) were sacrificed via cardiac puncture under anesthesia. The livers were perfused with saline, excised and frozen in liquid nitrogen in preparation for RNA extraction. Total RNA from 0.4 g of each liver was isolated as per manufacturer's protocol using Trizol Reagent (Gibco BRL). In order to remove contaminating genomic DNA, the RNA sample was incubated with RQ1 RNase-free DNase (Promega) for 30 minutes at 37° C. The RNA was subsequently precipitated and resuspended to a final concentration of 0.5 mg/ml. To confirm the expression pattern of the genes as discovered in the differential display experiment and to determine the transcript size of these genes, Northern blot analysis was performed. […] The transfer of the RNA onto the membrane was verified by methylene blue staining. […] The Northern blot was performed following the protocol in Ausubel et al., 1994-, Current Protocols in Molecular Biology, John Wiley & Sons, NY. […]

G6PD = experiment: Northern blot quantification of G6PD mRNA in liver of rats fed PUFA-supplemented fat free diet; conditions: rat liver RNA; female Wistar rats, fat free diet 2 weeks, then fatty acid 5% (w/w) in diet 2 weeks; ± standard deviation of three rats; not normalized for 18S; fat free = 100
Text: as §1

GPAT = experiment: Northern blot quantification of GPAT mRNA in liver of rats fed PUFA-supplemented fat free diet; conditions: rat liver RNA; female Wistar rats, fat free diet 2 weeks, then fatty acid 5% (w/w) in diet 2 weeks; ± standard deviation of three rats; normalized for 18S; fat free = 100
Text: as §1

FAS = experiment: Northern blot quantification of FAS mRNA in liver of rats fed PUFA-supplemented fat free diet; conditions: rat liver RNA; female Wistar rats, fat free diet 2 weeks, then fatty acid 5% (w/w) in diet 2 weeks; ± standard deviation of three rats; normalized for 18S; fat free = 100
Text: as §1

[1] = test system: delta-3, delta-2-enoyl-CoA isomerase; experiment: Northern blot quantification of delta-3, delta-2-enoyl-CoA isomerase mRNA in liver of rats fed PUFA-supplemented fat free diet; conditions: rat liver RNA; female Wistar rats, fat free diet 2 weeks, then fatty acid 5% (w/w) in diet 2 weeks; ± standard deviation of three rats; normalized for 18S; EPA = 100, fat free = 14 ± 18
Text: as §1

COMT = experiment: Northern blot quantification of COMT mRNA in liver of rats fed PUFA-supplemented fat free diet; conditions: rat liver RNA; female Wistar rats, fat free diet 2 weeks, then fatty acid 5% (w/w) in diet 2 weeks; ± standard deviation of three rats; normalized for 18S; fat free = 100
Text: as §1

ApoA-1 = experiment: Northern blot quantification of ApoA-1 mRNA in liver of rats fed PUFA-supplemented fat free diet; conditions: rat liver RNA; female Wistar rats, fat free diet 2 weeks, then fatty acid 5% (w/w) in diet 2 weeks; ± standard deviation of three rats; normalized for 18S; fat free = 100
Text: as §1

Spot-14 = experiment: Northern blot quantification of Spot-14 mRNA in liver of rats fed PUFA-supplemented fat free diet; conditions: rat liver RNA; female Wistar rats, fat free diet 2 weeks, then fatty acid 5% (w/w) in diet 2 weeks; ± standard deviation of three rats; normalized for 18S; fat free = 100
Text: as §1

INSIG1 = experiment: Northern blot quantification of INSIG1 mRNA in liver of rats fed PUFA-supplemented fat free diet; conditions: rat liver RNA; female Wistar rats, fat free diet 2 weeks, then fatty acid 5% (w/w) in diet 2 weeks; ± standard deviation of three rats; normalized for 18S; fat free = 100
Text: as §1

FTF1 = experiment: Northern blot quantification of FTF1 mRNA in liver of rats fed PUFA-supplemented fat free diet; conditions: rat liver RNA; female Wistar rats, fat free diet 2 weeks, then fatty acid 5% (w/w) in diet 2 weeks; ± standard deviation of three rats; not normalized for 18S; fat free = 100
Text: as §1

GLOL = experiment: Northern blot quantification of GLOL mRNA in liver of rats fed PUFA-supplemented fat free diet; conditions: rat liver RNA; female Wistar rats, fat free diet 2 weeks, then fatty acid 5% (w/w) in diet 2 weeks; ± standard deviation of three rats; normalized for 18S; fat free = 100
Text: as §1

METP = experiment: Northern blot quantification of METP mRNA in liver of rats fed PUFA-supplemented fat free diet; conditions: rat liver RNA; female Wistar rats, fat free diet 2 weeks, then fatty acid 5% (w/w) in diet 2 weeks; ± standard deviation of three rats; normalized for 18S; EPA = 100, fat free = 10 ± 5
Text: as §1

A1BG = experiment: Northern blot quantification of A1BG mRNA in liver of rats fed PUFA-supplemented fat free diet; conditions: rat liver RNA; female Wistar rats, fat free diet 2 weeks, then fatty acid 5% (w/w) in diet 2 weeks; ± standard deviation of three rats; not normalized for 18S; DHA = 100, fat free = 7 ± 9
Text: as §1

[2] = test system: mRNA populations from rat liver; experiment: Differential display of mRNA populations from liver of rats fed PUFA-supplemented fat free diet; conditions: preliminary differential display studies
Text: The present inventors have identified genes that were modulated or regulated by dietary fat using a differential display technique (Liang P. and Pardee A. B., 1992, Science, 257: 967-971). Groups of female Wistar rats were fed fat free diet for two weeks. After two weeks all groups but one (controls) were supplemented with highly purified PUFAs for an additional two weeks. The rats were sacrificed and tissues were removed to obtain RNA for differential display and Northern blotting. Differential display identified genes regulated by dietary fat by comparing mRNA populations from rat liver. For the study, the rats were divided into six groups and fed fat free diet for 14 days. Each group was fed fat free diet for an additional two weeks with the following supplements: group 1—no supplement (fat free control); group 2—linoleic acid (LA, 18:2n-6); group 3—gamma-linolenic acid (GLA, 18:3n-6); group 4—alpha-linolenic acid (ALA, 18:3n-3); group 5—eicosapentaenoic acid (EPA, 20:5n-3) and group 6—docosahexaenoic acid (DHA, 22:6n-3). Fatty acids were administered in the diet at a fatty acid-specific concentration of 5% (w/w), as described in Example 1. The rats were fed ad libitum. The protocol used in the present differential display experiment is based on, and closely followed, the Clontech Delta Differential Display Kit (Clontech Catalog No. K1810-1). […]

Structure (SMILES)	quantification of the Northern blots, SCD1 (SCD1)	quantification of the Northern blots, SCD2 (SCD2)	quantification of the Northern blots, G6PD (G6PD)	quantification of the Northern blots, GPAT (GPAT)	quantification of the Northern blots, FAS (FAS)	quantification of the Northern blots, delta-3, delta-2-enoyl-CoA isomerase [1]	quantification of the Northern blots, COMT (COMT)	quantification of the Northern blots, ApoA-1 (ApoA-1)	quantification of the Northern blots, Spot-14 (Spot-14)	quantification of the Northern blots, INSIG1 (INSIG1)	quantification of the Northern blots, FTF1 (FTF1)	quantification of the Northern blots, GLOL (GLOL)	quantification of the Northern blots, METP (METP)	quantification of the Northern blots, A1BG (A1BG)	differences in differential display versus fat free control [2]
CC/C=C\C/C=C\C/C=C\C/C=C\C/C=C\C/C=C\CCC(=O)O [DHA, docosahexaenoic acid]	1 ± 1%	4 ± 1%	19 ± 7%	26 ± 15%	27 ± 21%	87 ± 2%	49 ± 3%	12 ± 1%	24 ± 18%	13 ± 11%	13 ± 12%	36 ± 17%	80 ± 28%	100 ± 64%	
CC/C=C\C/C=C\C/C=C\C/C=C\C/C=C\CCCC(=O)O [EPA, eicosapentaenoic acid]		2 ± 1%	15 ± 14%	14 ± 10%	17 ± 14%	100 ± 35%	50 ± 4%	25 ± 4%	19 ± 25%	25 ± 3%	10 ± 7%	29 ± 15%	100 ± 16%	32 ± 30%	
CCCCC/C=C\C/C=C\C/C=C\CCCCC(=O)O [GLA, gamma-linolenic acid]	6 ± 8%	11 ± 6%	8 ± 9%	15 ± 13%	17 ± 12%	33 ± 15%	45 ± 23%	32 ± 8%	12 ± 7%	11 ± 2%	4 ± 8%	37 ± 11%	78 ± 12%	14 ± 10%	
CCCCC/C=C\C/C=C\CCCCCCCC(=O)O [LA, linoleic acid]	63 ± 20%	63 ± 15%	42 ± 27%	52 ± 5%	47 ± 40%	29 ± 27%	59 ± 6%	90 ± 23%	50 ± 6%	49 ± 12%	56 ± 15%	64 ± 6%	37 ± 7%	52 ± 47%	no differences
